Assay [1] concerns the target GDP-bound KRAS wild-type protein (Homo sapiens, UniProt P01116). In words: Binding to KRAS by surface plasmon resonance (SPR), Single Cycle Kinetics. The conditions noted are these: GDP-bound KRAS wild-type protein, read-out: KRAS KD.
Assay [2] has as its target GDP-bound NRAS wild-type protein (Homo sapiens, UniProt P01111). In words: Binding to NRAS by surface plasmon resonance (SPR), Single Cycle Kinetics. To be noted: for NRAS/KRAS (ratio of KD value for NRAS to KD value for KRAS) / NRAS/KRAS (ratio of KD value with respect to NRAS to KD value with respect to KRAS): SPR, GDP-bound NRAS wild-type protein vs GDP-bound KRAS wild-type protein.

The target in assay [3] is GDP-bound HRAS wild-type protein (Homo sapiens, UniProt P01112). The experiment in a line: Binding to HRAS by surface plasmon resonance (SPR), Single Cycle Kinetics. To be noted: for HRAS/KRAS (ratio of KD value for HRAS to KD value for KRAS) / HRAS/KRAS (ratio of KD value with respect to HRAS to KD value with respect to KRAS): SPR, GDP-bound HRAS wild-type protein vs GDP-bound KRAS wild-type protein.
Sequence of GDP-bound HRAS wild-type protein (P01112 whole entry): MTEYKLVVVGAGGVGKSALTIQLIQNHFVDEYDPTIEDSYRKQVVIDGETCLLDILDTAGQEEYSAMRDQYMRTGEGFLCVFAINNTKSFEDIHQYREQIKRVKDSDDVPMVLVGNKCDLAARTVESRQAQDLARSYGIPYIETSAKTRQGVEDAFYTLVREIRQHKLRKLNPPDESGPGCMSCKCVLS

The mark [4] stands for this setting: SPR Single Cycle Kinetics, 1:1 binding model.

Where two headings read alike, the source gives them in different places. Where a SMILES comes first, the peptide text is derived from it. Bridges are numbered along the chain shown (N, C = ends). [ ]: non-standard residue; d: D form. The star is where a group is joined. hPhe(3-Cl-4-CF3) = N[C@@H](CCc1ccc(C(F)(F)F)c(Cl)c1)C(=O)O; NPrPhe(4-CF3) = CCCN[C@@H](Cc1ccc(C(F)(F)F)cc1)C(=O)O; NMeGly(cPent) = CN[C@H](C(=O)O)C1CCCC1; NMeD = CN[C@@H](CC(=O)O)C(=O)O; NMeNva = CCC[C@H](NC)C(=O)O; Morpholide = C1CN(*)CCO1; Ac5c = NC1(C(=O)O)CCCC1; Sar = CNCC(=O)O

Sequence of GDP-bound NRAS wild-type protein (P01111 whole entry): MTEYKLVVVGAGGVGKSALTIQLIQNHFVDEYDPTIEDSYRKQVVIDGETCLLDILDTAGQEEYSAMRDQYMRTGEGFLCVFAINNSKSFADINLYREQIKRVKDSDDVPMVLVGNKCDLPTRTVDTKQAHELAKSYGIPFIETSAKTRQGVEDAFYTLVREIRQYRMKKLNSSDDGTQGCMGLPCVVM
Sequence of GDP-bound KRAS wild-type protein (P01116 whole entry): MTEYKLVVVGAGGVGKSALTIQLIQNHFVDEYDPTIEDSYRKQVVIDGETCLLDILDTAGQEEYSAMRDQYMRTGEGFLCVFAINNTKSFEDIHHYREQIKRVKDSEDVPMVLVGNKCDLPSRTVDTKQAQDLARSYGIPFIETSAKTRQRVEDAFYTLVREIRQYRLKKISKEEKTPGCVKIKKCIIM

Turning to `CCC[C@H]1C(=O)N[C@@H]([C@@H](C)CC)C(=O)N(C)CC(=O)N(C)CC(=O)N(CCC)[C@@H](Cc2ccc(C(F)(F)F)cc2)C(=O)N(C)CC(=O)N[C@@H](CCc2ccc(C(F)(F)F)c(Cl)c2)C(=O)N2CCC[C@H]2C(=O)NC2(CCCC2)C(=O)N(C)[C@@H](C2CCCC2)C(=O)N(C)[C@H](C(=O)N2CCOCC2)CC(=O)N1C` [PP0189] ([NMeNva]I[Sar][Sar][NPrPhe(4-CF3)][Sar][hPhe(3-Cl-4-CF3)]P[Ac5c][NMeGly(cPent)][NMeD]-Morpholide; lactam N-11), the Kd in assay [1] (setting [4]) is 0.22 nM. Further, the “NRAS/KRAS (ratio of KD value for NRAS to KD value for KRAS)” value in assay [2] is “B (a compound having 3 or more and less than 10 is denoted as B)”. Besides, the “HRAS/KRAS (ratio of KD value for HRAS to KD value for KRAS)” value in assay [3] is “C (A compound having a KD ratio of 0.1 or more and less than 3 is denoted as C)”.
Turning to `CCO[C@@H]1C[C@H]2C(=O)NC3(CC(C)(C)C3)C(=O)N(C)[C@@H](C3CCCC3)C(=O)N(C)[C@H](C(=O)N(C)CC)CC(=O)N(C)[C@@H](CC(C)C)C(=O)N[C@@H]([C@@H](C)CC)C(=O)N(C)CC(=O)N(C)[C@H]3C/C=C\CCN(C3=O)[C@@H](Cc3ccc(C(F)F)cc3)C(=O)N(C)CC(=O)N[C@@H](CCc3ccc(Cl)c(Cl)c3)C(=O)N2C1` [PP2827], the Kd in assay [1] (setting [4]) is 0.38 nM. Besides, the “NRAS/KRAS (ratio of KD value with respect to GDP-bound NRAS wild-type protein to KD value with respect to KRAS)” value in assay [2] (SPR KD ratio NRAS/KRAS, class symbols) was “A (a compound having 10 or more and less than 20 is denoted as A)”. For the same compound, the “HRAS/KRAS (ratio of KD value with respect to GDP-bound HRAS wild-type protein to KD value with respect to KRAS)” value in assay [3] (SPR KD ratio HRAS/KRAS, class symbols) was “B (a compound having 3 or more and less than 10 is denoted as B)”.
Consider `CCO[C@@H]1C[C@H]2C(=O)NC3(CCC3)C(=O)N(C)[C@@H](C3CCCC3)C(=O)N(C)[C@H](C(=O)N(C)C)CC(=O)N(C)[C@@H](CC3CC3)C(=O)N[C@@H]([C@@H](C)CC)C(=O)N(C)CC(=O)N(C)[C@H]3CCCCCN(C3=O)[C@@H](Cc3ccc(C(F)(F)F)cc3)C(=O)N(C)CC(=O)N[C@@H](CCc3cc(F)c(C(F)(F)F)c(F)c3)C(=O)N2C1` [PP0667], for which, in assay [1] (setting [4]), the Kd came to 0.27 nM. For the same compound, the “NRAS/KRAS (ratio of KD value with respect to NRAS to KD value with respect to KRAS)” value in assay [2] is “B (a compound having 3 or more and less than 10 is denoted as B)”. In addition, in assay [3], the “HRAS/KRAS (ratio of KD value with respect to HRAS to KD value with respect to KRAS)” value is “B (a compound having 3 or more and less than 10 is denoted as B)”.
Regarding `CCC(CC)[C@@H]1NC(=O)[C@H](CC(C)C)N(C)C(=O)C[C@@H](C(=O)N2CCOCC2)N(C)C(=O)[C@H](C2CCCC2)N(C)C(=O)C2(CCCC2)NC(=O)[C@@H]2CCCN2C(=O)[C@H](CCc2cc(F)c(C(F)(F)F)c(F)c2)NC(=O)CN(C)C(=O)[C@H](Cc2ccc(C(F)(F)F)cc2)N2CCCCC[C@@H](C2=O)N(C)C(=O)CN(C)C1=O` [PP0523], the Kd in assay [1] (setting [4]) came out at 12 nM. Besides, in assay [2], the “NRAS/KRAS (ratio of KD value with respect to NRAS to KD value with respect to KRAS)” value is “A (a compound having 10 or more and less than 20 is denoted as A)”. The “HRAS/KRAS (ratio of KD value with respect to HRAS to KD value with respect to KRAS)” value in assay [3] is “B (a compound having 3 or more and less than 10 is denoted as B)”.
With `CCO[C@@H]1C[C@H]2C(=O)NC3(CCC3)C(=O)N(C)[C@@H](C3CCCC3)C(=O)N(CC)[C@H](C(=O)N3CCOCC3)CC(=O)N(C)[C@@H](Cc3ccccc3)C(=O)N[C@@H]([C@@H](C)CC)C(=O)N(C)CC(=O)N(C)[C@H]3CCCCCN(C3=O)[C@@H](Cc3ccc(C(F)(F)F)cc3)C(=O)N(C)CC(=O)N[C@@H](CCc3cc(F)c(C(F)(F)F)c(F)c3)C(=O)N2C1` [PP0950], the Kd in assay [1] (SPR, Single Cycle Kinetics) was 6 nM. In addition, the “NRAS/KRAS (ratio of KD value for NRAS to KD value for KRAS)” value in assay [2] was “A (a compound having 10 or more and less than 20 is denoted as A)”. Further, the “HRAS/KRAS (ratio of KD value for HRAS to KD value for KRAS)” value in assay [3] was “B (a compound having 3 or more and less than 10 is denoted as B)”.
`C=CC[C@H]1C(=O)N[C@@H]([C@@H](C)CC)C(=O)N(C)CC(=O)N(C)[C@H]2CCCCN(C2=O)[C@@H](Cc2ccc(C(F)(F)F)cc2)C(=O)N(C)CC(=O)N[C@@H](CCc2cc(F)c(C(F)(F)F)c(F)c2)C(=O)N2C[C@H](OCC)C[C@H]2C(=O)NC2(CCC2)C(=O)N(C)[C@@H](C2CCCC2)C(=O)N(C)[C@H](C(=O)N(C)C)CC(=O)N1C` [PP0695]: in assay [1] (setting [4]), the Kd came out at 0.015 nM. The “NRAS/KRAS (ratio of KD value with respect to NRAS to KD value with respect to KRAS)” value in assay [2] is “C (A compound having a KD ratio of 0.1 or more and less than 3 is denoted as C)”. In addition, in assay [3], the “HRAS/KRAS (ratio of KD value with respect to HRAS to KD value with respect to KRAS)” value was “C (A compound having a KD ratio of 0.1 or more and less than 3 is denoted as C)”.
